# Laboratory results as given in PubChem BioAssay (NCI).
# Where “and” joins values, the source holds several entries; their conditions need not be identical. Equal values may be shown once.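 Compound exposure: 48 hours, 5 concentrations, 96-well plates. Here, GI50 denotes the concentration required for 50% inhibition of growth. At the TGI there is no net growth.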
# Assays:
# Experiment in all cases: NCI anticancer screen, dose series, 48 h
# [1] = test system: ACHN renal
# [2] = test system: K-562 leukemia
# [3] = test system: SF-295 CNS
# [4] = test system: MOLT-4 leukemia
# [5] = test system: PC-3 prostate
# [6] = test system: HCT-116 colon
# [7] = test system: LOX IMVI melanoma
# [8] = test system: T-47D breast
# [9] = test system: HCC-2998 colon
# [10] = test system: SF-539 CNS
Structure (SMILES),GI50 [1] [µM],TGI [1] [µM],GI50 [2] [µM],TGI [2] [µM],GI50 [3] [µM],TGI [3] [µM],GI50 [4] [µM],TGI [4] [µM],GI50 [5] [µM],TGI [5] [µM],GI50 [6] [µM],TGI [6] [µM],GI50 [7] [µM],TGI [7],GI50 [8] [µM],TGI [8] [µM],GI50 [9] [µM],TGI [9],GI50 [10] [µM],TGI [10]
COC(=O)c1cc2ccccc2c2c3c(ccc12)OCO3,75.3,> 1000,658,> 1000,99.8,548,794,> 1000,67.4,> 1000,194,> 1000,772,> 1000 µM,44.2,> 1000,562,> 1000 µM,44.4,394 µM
N#Cc1nc2c(S(=O)(=O)c3ccc(Cl)cc3)c(N)n(CCCN3CCOCC3)c2nc1C#N,3.26,15.3,3,31,17.6,40.7,2.63,9.64,26.7,95.4,3.11,13.6,4.76,17.3 µM,2.95,16.6,18,33.7 µM,2.31,7.9 µM
CC1=C(CCC(C)NCc2ccc(OCCCN3CCCCC3)cc2)C(C)(C)CCC1 (stereo not given),1.69,3.17,0.227,0.509,1.66,3.23,,,1.54,3.42,1.53,3.13,1.44,2.85 µM,1.63,3.65,0.232,0.612 µM,1.64,3.22 µM
O=c1c(O)c(-c2ccc(O)c(O)c2)oc2cc(O)cc(O)c12,15.6,> 100,5.2,> 100,23.1,> 100,13,> 100,18.7,> 100,16.9,> 100,11.4,> 84.1 µM and 35.9 µM,23.8,> 100,16,51 µM and > 100 µM,6.04,37.2 µM and > 100 µM
Cc1[nH]c2ccc(F)cc2c1-c1nc2c3cccnc3c3ncccc3c2[nH]1,0.327,> 100,0.353,> 100,0.428,> 100,0.298,> 100,0.393,> 100,0.263,> 100,,,0.357,> 100,0.321,> 100 µM,,
c1ccc2[nH]c(-c3cc(-c4ccc5c(c4)OCO5)n[nH]3)nc2c1,4.33,19,3.83,22.1,3.24,14.6,2.68,20.9,3.64,17.7,6.36,25.4,,,3.32,16.2,3.74,14 µM,2.71,14.1 µM
COc1cccc(-c2cc3c4c(nc5ccccc53)C(=O)c3cccnc3-c4n2)c1,2.21,9.82,1.82,> 100,2.34,6.44,0.788,> 100,2.73,12.8,1.3,5.75,2.31,> 100 µM,2.26,5.99,2.2,4.61 µM,3.28,10.3 µM
CCOC(=O)c1cc2c(n1Cc1cc(OC)c(OC)c(OC)c1)-c1oncc1CCC2,0.296,> 59.9,0.0973,> 100,,,0.406,> 44.8,0.209,> 65.3,0.235,> 100,0.401,> 35.7 µM,0.373,53.4,0.335,5.17 µM,,
[O-]c1ccccc1/C=N/C(/N=C/c1ccccc1[O-])c1ccccc1O.[O-]c1ccccc1/C=N/C(/N=C/c1ccccc1[O-])c1ccccc1O.[Zr+4],36.1,> 100,44.3,> 100,31.8,> 100,25.2,> 100,50.9,> 100,40.8,> 100,,,28.3,> 100,34.7,> 100 µM,17.8,> 100 µM
O=C1NOC(c2ccc(O)cc2)(c2ccc(O)cc2)c2ccccc21,> 100,> 100,> 100,> 100,> 100,> 100,> 100,> 100,> 100,> 100,> 100,> 100,> 100,> 100 µM,> 100,> 100,> 100,> 100 µM,,
Nc1ncnc2c1c(-c1ccc(Oc3ccccc3)cc1)nn2C[C@@H]1SSC[C@H]1O,2.02,10.5,0.501,15.5,2.7,9.25,,,3.23,15.5,0.364,5.23,0.272,1.74 µM,1.09,10.3,4.34,23.5 µM,1.02,8.02 µM
CC[C@H](CO)Nc1nc(NCc2ccccc2)c2ncn(C(C)C)c2n1,16.4,> 85.9,40.3,> 100,21.8,> 79.6,,,,70,11.1,> 100,,> 84.1 µM,21.7,> 84.2,24.7,> 75.2 µM,,53.6 µM
Cc1nn(-c2ccc(Cl)cc2)c2nc3c(nc12)C(=O)C(=O)c1ccccc1-3,19.5,> 100,,,1.72,3.43,> 100,> 100,2.31,> 100,7.42,32.8,2.08,5.89 µM,12.1,29.9,1.74,3.79 µM,3.14,9.3 µM
